The nature of this test: Slope was measured from percentage of specific binding with time.
`CCCC(=O)OC.CO/C(O)=C1/C(C)=NCCC1c1ccccc1F` (centres undefined): the Slope is 1.6.

The molecule `CCCC(=O)OC.CO/C(O)=C1/C(C)=NCCC1c1ccccc1Cl` (centres undefined) registered a Slope of 1.4.

`CCCC(=O)OC.CO/C(O)=C1/C(C)=NCCC1c1ccccc1Br` (centres undefined) showed a Slope of 1.3.

With `CCCC(=O)OC.CO/C(O)=C1/C(C)=NCCC1c1ccccc1I` (centres undefined), the Slope came out at 1.2.
